According to patent US20180343857A1, “BIOSOLUBILIZER” (SOLIANCE, priority 2012, published 2018):
Where a name gives a salt, the structure may show the parent alone.

Test system: Avena Fatua
Experiment: Biological effectiveness of glyphosate with extemporaneous adjuvant (biomass reduction curves)
Assay type: in vivo
Conditions: Avena Fatua in pots; glyphosate 50 to 650 g equivalent acid per hectare; dry biomass 3 weeks after treatment; R = 1 for herbicide without adjuvant
Description: The preparation of example 2.4 containing terpenic alcohols solubilised by sophorolipids is used as an extemporaneous adjuvant of glyphosate. Glyphosate is a non-selective herbicide, the definition and use of which are described in particular in “The biochemistry and uses of pesticides, 2nd edition” by Kenneth A. Hassall published by VCH (1990). An extemporaneous adjuvant is a preparation added to the phytosanitary preparation at the moment of application and is used to reinforce the action of the latter.
The glyphosate used is a solution of glyphosate in the form of isopropylamine salt titrated to 620 g/l equivalent glyphosate acid.
The effectiveness of the preparation according to the invention is assessed by forming curves of biological effectiveness, that is by determining the ability of the preparations to reduce the biomass of a target plant as a function of the concentration of herbicide. […]
where Y is the dry biomass of the plant (plant cut at the base and dried 24 h at 110° C. in a ventilated heat chamber), X is the concentration of herbicide expressed in grams of glyphosate acid per hectare. C, D, a and b being factors determined by analysing the curve according to the least squares method. […] Its value is determined by applying the above equation with the parameters D, C, a and b of the curve of the herbicide without adjuvant (R=1) according to the least squares method. […]

SMILES: O=C(O)CNCP(=O)(O)O [Glyphosate (iso-propylamine salt), Glyphosate]
- R (factor of effectiveness): 1
